Experimental data taken from article PMC9398908, “GLP-1-mediated delivery of tesaglitazar improves obesity and glucose metabolism in male mice” (Nature Metabolism, 2022).
“And” between values parts separate entries of the source, which are not always exact repeats. Equal entries are not always repeated.

Tests used:
[1] = tested on: C57BL/6J DIO mice; test: Urinary albumin:creatinine ratio in DIO mice (Extended Data Fig. 2g); type: in vivo, mouse; settings: 14-day treatment, 50 nmol kg−1 per day, in words
Text: Frozen urine samples from heterozygous GIPR^dn mice in a CD1 background (n = 3) served as positive controls. […] For each treatment group, uACR was computed as a ratio of urinary albumin (mg ml^−1) to urinary creatinine (mg ml^−1).

[2] = tested on: cFOS; test: cFOS positive neurons in hypothalamic nuclei (ARC, VMH, DMH) after a single s.c. dose (Fig. 7a,b; Extended Data Fig. 4a–c); type: in vivo, mouse
Procedure: For cFOS analysis, mice were treated s.c. with a single dose of 150 nmol kg^−1. Tissues were harvested 90 min following drug exposure. Fixed brains were coronally cryosectioned and 35-μm-thick slices were immunolabelled with the monoclonal rabbit anti-cFOS antibody (1:400, Invitrogen, no. MA5-15055) and the antirabbit Alexa546 secondary antibody (1:4,000, Invitrogen, no. A10040). According to the Allen mouse brain atlas, the ARC and the dorsomedial and ventromedial hypothalamic nuclei were captured at ×20 magnification using the Leica SP8 confocal microscope. In each region, the number of cFOS positive cells was counted in a blinded manner using Fiji/ImageJ software. For assessment of central nervous system drug appearance, mice (n = 3–4 each group) were treated with a single s.c. dose of the Cy5-labelled peptides (150 nmol kg^−1). After 90 min, tissues were harvested and processed similar to the cFOS analysis.

[3] = target: T1, hGLP-1R (Homo sapiens, UniProt P43220); test: Ligand-induced Mini-Gαs recruitment to hGLP-1R-GFP (BRET) in HEK293T cells; type: cell-based; settings: HEK293 cells transfected with human GLP-1R; dose response, Fig. 1a; in words
T1 construct: host or cells: HEK293T, transient transfection
T1 sequence (P43220 24-463): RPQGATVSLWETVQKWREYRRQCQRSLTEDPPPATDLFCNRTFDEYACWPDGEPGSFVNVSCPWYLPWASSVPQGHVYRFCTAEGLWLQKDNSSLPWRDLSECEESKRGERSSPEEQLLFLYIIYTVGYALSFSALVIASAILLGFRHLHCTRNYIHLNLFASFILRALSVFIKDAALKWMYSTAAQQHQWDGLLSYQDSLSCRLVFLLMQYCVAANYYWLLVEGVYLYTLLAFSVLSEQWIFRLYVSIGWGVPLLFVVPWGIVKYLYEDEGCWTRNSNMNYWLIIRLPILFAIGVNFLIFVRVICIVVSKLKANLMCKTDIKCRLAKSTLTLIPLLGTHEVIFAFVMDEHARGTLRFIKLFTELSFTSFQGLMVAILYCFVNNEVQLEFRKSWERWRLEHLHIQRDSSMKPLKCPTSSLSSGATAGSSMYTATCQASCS
Procedure: HEK293T cells (700,000 per well) were seeded in six-well plates and incubated to 70% confluency in DMEM (10% FBS, 1% Pen/Strep). Twenty-four hours following seeding, transient transfections were performed using Lipofectamine 2000 (catalogue no. 11668019, Invitrogen) according to the manufacturer’s protocol without including additional transformation carrier DNA.
Twenty-four hours following transfection, HEK293T cells or MIN6 cells were washed with PBS and resuspended in FluoroBrite phenol red-free complete media (catalogue no. A1896701, Life Technologies) containing 5% FBS and 2 mM of L-glutamine (catalogue no. 25030081, Life Technologies). 100,000 cells per well were plated into poly-D-lysine-coated (catalogue no. P6403, Sigma-Aldrich) 96-well white polystyrene LumiNunc plates (catalogue no. 10072151, Thermo Fisher Scientific). After 24 h, the media was replaced with PBS (catalogue no. 10010056, Gibco) containing 10 μM of coelenterazine-h (catalogue no. S2011, Promega) or 1:500 dilution of NanoGlo (catalogue no. N1110, Promega). BRET measurements were taken every 30 s–2 min using a PHERAstar FS multi-mode microplate reader. […] The resulting ligand-specific ratiometric BRET signals were normalized to vehicle producing the ‘ligand-induced BRET ratio’[37], followed by an additional normalization step to well-specific baseline readings.

## CCO[C@@H](Cc1ccc(OCCc2ccc(OS(C)(=O)=O)cc2)cc1)C(=O)O [tesaglitazar, (S)-2-ethoxy-3-(4-(4-((methylsulfonyl)oxy)phenethoxy)phenyl) propanoic acid]
[1]
  urinary albumin:creatinine ratio: likewise not changed
[2]; Fig. 7b, 47-week-old male DIO mice, single s.c. 150 nmol kg−1, 90 min, individual mice
  cFOS (cFos positive neurons in the ARC): 43 and 38 and 21 and 45
[2]; Suppl. Fig. 4b, animal 1 of the group
  cFOS: 55
[2]; Suppl. Fig. 4b, animal 2 of the group
  cFOS: 124
[2]; Suppl. Fig. 4b, animal 3 of the group
  cFOS: 77
[2]; Suppl. Fig. 4b, animal 4 of the group
  cFOS: 96
[2]; Suppl. Fig. 4c, animal 1 of the group
  cFOS: 13
[2]; Suppl. Fig. 4c, animal 2 of the group
  cFOS: 9
[2]; Suppl. Fig. 4c, animal 3 of the group
  cFOS: 15
[2]; Suppl. Fig. 4c, animal 4 of the group
  cFOS: 20
[3]
  GLP-1R-mediated Gαs recruitment: had no effect
